Data from EP3409761B1, “CULTURE MEDIUM COMPOSITION, AND METHOD FOR CULTURING CELL OR TISSUE USING SAID COMPOSITION” (Nissan Chemical Corporation, priority 2012, dated 2014).

Experiments:
Format in all cases: cell-based
[1] = system: human cervical cancer cell line HeLa; test: Comparison with single layer culture method using agent for inducing apoptosis; settings: day 4
Method: This aqueous solution was sterilized at 121°C for 20 min in an autoclave. […] Each plate was cultured by being stood still in a CO2 incubator (37°C, 5% CO2). […] To the culture medium on day 4 was added an ATP reagent (150 µL) (CellTiter-Glo (registered trade mark) Luminescent Cell Viability Assay, manufactured by Promega) to give a suspension, which was stood for about 10 min at room temperature, and the luminescence intensity (RLU value) was measured by FlexStation3 (manufactured by Molecular Devices), and the number of viable cells was measured by subtracting the luminescence value of the medium alone. For WST-8 measurement, a WST-8 solution (manufactured by DOJINDO Laboratories, 15 µL) was added, the mixture was incubated at 37°C for 100 min, the absorbance at 450 nm was measured by an absorbance spectrometer (manufactured by Molecular Devices, SPECTRA MAX 190), and the number of viable cells was measured by subtracting the absorbance of the medium alone.

[2] = system: human cervical cancer cell line HeLa; test: Comparison with single layer culture method in cell proliferation test using anticancer drug; settings: day 4
Method: This aqueous solution was sterilized at 121°C for 20 min in an autoclave. […] Each plate was cultured by being stood still in a CO2 incubator (37°C, 5% CO2). […] The anticancer drug used was Adriamycin (manufactured by WAKO), Paclitaxel (manufactured by WAKO) or Mitomycin C (manufactured by WAKO). To the culture medium on day 4 was added an ATP reagent (150 µL) (CellTiter-Glo (registered trade mark) Luminescent Cell Viability Assay, manufactured by Promega) to give a suspension, which was stood for about 10 min at room temperature, and the luminescence intensity (RLU value) was measured by FlexStation3 (manufactured by Molecular Devices), and the number of viable cells was measured by subtracting the luminescence value of the medium alone. For WST-8 measurement, a WST-8 solution (manufactured by DOJINDO Laboratories, 15 µL) was added, the mixture was incubated at 37°C for 100 min, the absorbance at 450 nm was measured by an absorbance spectrometer (manufactured by Molecular Devices, SPECTRA MAX 190), and the number of viable cells was measured by subtracting the absorbance of the medium alone.

[3] = system: human cervical cancer cell line HeLa; test: Cell proliferation test using various anticancer drugs; settings: DAG 0.030% medium; for cell density: 5 days later
Method: This aqueous solution was sterilized at 121°C for 20 min in an autoclave. […] The anticancer drug used was Adriamycin (manufactured by WAKO), Paclitaxel (manufactured by WAKO) or Mitomycin C (manufactured by WAKO).
Successively, this plate was cultured by being stood still in a CO2 incubator (37°C, 5% CO2) for 7 days. After culturing for 3, 5, 7 days, to the culture medium was added a WST-8 solution (manufactured by DOJINDO Laboratories, 20 µL), and the mixture was incubated at 37°C for 100 min. The absorbance at 450 nm was measured by an absorbance spectrometer (manufactured by Molecular Devices, SPECTRA MAX 190), and the number of viable cells was measured by subtracting the absorbance of the medium alone. The culture medium containing the cells after 5 days of culture was stirred with a pipette and the obtained stirred solution (20 µL) was mixed with Trypan Blue stain 0.4% (manufactured by Invitrogen, 20 µL) and the cell density was measured under a microscope.

[4] = agent 10 µM, deacylated gellan gum addition group (0.015%)
[5] = agent 10 µM, single layer culture group
[6] = agent 100 µM, deacylated gellan gum addition group (0.015%)
[7] = agent 100 µM, single layer culture group
[8] = drug 0.005 µM, deacylated gellan gum addition group (0.015%)
[9] = drug 0.005 µM, single layer culture group
[10] = drug 0.05 µM, deacylated gellan gum addition group (0.015%)
[11] = drug 0.05 µM, single layer culture group
[12] = drug 0.5 µM, deacylated gellan gum addition group (0.015%)
[13] = drug 0.5 µM, single layer culture group
[14] = agent 0.2 µM, deacylated gellan gum addition group (0.015%)
[15] = agent 0.2 µM, single layer culture group
[16] = agent 2 µM, deacylated gellan gum addition group (0.015%)
[17] = agent 2 µM, single layer culture group

C[C@@H]1C[C@@H]([C@H](O)CC2CC(=O)NC(=O)C2)C(=O)[C@@H](C)C1 [Cycloheximide]
% Control value of the RLU value (ATP measurement) [1, 4]: 9 % Control | % Control value of the absorbance at 450 nm (WST-8 measurement) [1, 4]: 4 % Control | % Control value of the RLU value (ATP measurement) [1, 5]: 29 % Control | % Control value of the absorbance at 450 nm (WST-8 measurement) [1, 5]: 21 % Control | % Control value of the RLU value (ATP measurement) [1, 6]: 4 % Control | % Control value of the absorbance at 450 nm (WST-8 measurement) [1, 6]: 1 % Control | % Control value of the RLU value (ATP measurement) [1, 7]: 9 % Control | % Control value of the absorbance at 450 nm (WST-8 measurement) [1, 7]: 7 % Control

CO[C@@]12[C@H](COC(N)=O)C3=C(C(=O)C(C)=C(N)C3=O)N1C[C@@H]1N[C@@H]12 [Mitomycin C]
% Control value of the RLU value (ATP measurement) [2, 8]: 83 % Control | % Control value of the absorbance at 450 nm (WST-8 measurement) [2, 8]: 94 % Control | % Control value of the RLU value (ATP measurement) [2, 9]: 99 % Control | % Control value of the absorbance at 450 nm (WST-8 measurement) [2, 9]: 101 % Control | % Control value of the RLU value (ATP measurement) [2, 10]: 48 % Control | % Control value of the absorbance at 450 nm (WST-8 measurement) [2, 10]: 37 % Control | % Control value of the RLU value (ATP measurement) [2, 11]: 89 % Control | % Control value of the absorbance at 450 nm (WST-8 measurement) [2, 11]: 83 % Control | % Control value of the RLU value (ATP measurement) [2, 12]: 29 % Control | % Control value of the absorbance at 450 nm (WST-8 measurement) [2, 12]: 12 % Control | % Control value of the RLU value (ATP measurement) [2, 13]: 86 % Control | % Control value of the absorbance at 450 nm (WST-8 measurement) [2, 13]: 71 % Control | cell density ([3]; drug 0.01 µM): 1.0 10^4 cells/mL | cell number (absorbance at 450 nm, WST-8) ([3]; drug 0.01 µM, day 3): 0.089 | cell number (absorbance at 450 nm, WST-8) ([3]; drug 0.01 µM, day 5): 0.016 | cell number (absorbance at 450 nm, WST-8) ([3]; drug 0.01 µM, day 7): < 0 | cell density ([3]; drug 0.1 µM): 0.4 10^4 cells/mL | cell number (absorbance at 450 nm, WST-8) ([3]; drug 0.1 µM, day 3): 0.032 | cell number (absorbance at 450 nm, WST-8) ([3]; drug 0.1 µM, day 5): < 0 | cell number (absorbance at 450 nm, WST-8) ([3]; drug 0.1 µM, day 7): < 0 | cell density ([3]; drug 1 µM): 0.1 10^4 cells/mL | cell number (absorbance at 450 nm, WST-8) ([3]; drug 1 µM, day 3): < 0 | cell number (absorbance at 450 nm, WST-8) ([3]; drug 1 µM, day 5): < 0 | cell number (absorbance at 450 nm, WST-8) ([3]; drug 1 µM, day 7): < 0

CC[C@@]1(O)C(=O)OCc2c1cc1n(c2=O)Cc2cc3ccccc3nc2-1 [Camptothecin]
% Control value of the RLU value (ATP measurement) [1, 14]: 27 % Control | % Control value of the absorbance at 450 nm (WST-8 measurement) [1, 14]: 24 % Control | % Control value of the RLU value (ATP measurement) [1, 15]: 63 % Control | % Control value of the absorbance at 450 nm (WST-8 measurement) [1, 15]: 68 % Control | % Control value of the RLU value (ATP measurement) [1, 16]: 11 % Control | % Control value of the absorbance at 450 nm (WST-8 measurement) [1, 16]: 7 % Control | % Control value of the RLU value (ATP measurement) [1, 17]: 44 % Control | % Control value of the absorbance at 450 nm (WST-8 measurement) [1, 17]: 28 % Control
